In publication PMC3914206:

Assays:
Format in all cases: binding
Conditions in all cases: Compound Concentration 10 µM
panel of 442 kinases [1] = target: T1, panel of 442 kinases (Homo sapiens, UniProt P08922)
T1 construct: purchased KINOMEscan
Excerpt: (§1) We assessed the selectivity of members of this scaffold using the KINOMEscan methodology across a near comprehensive panel of 442 kinases [[18,27]].

panel of 442 kinases [2] = target: T2, panel of 442 kinases (Homo sapiens, UniProt P54756)
T2 construct: purchased KINOMEscan
T2 sequence (P54756 25-1037): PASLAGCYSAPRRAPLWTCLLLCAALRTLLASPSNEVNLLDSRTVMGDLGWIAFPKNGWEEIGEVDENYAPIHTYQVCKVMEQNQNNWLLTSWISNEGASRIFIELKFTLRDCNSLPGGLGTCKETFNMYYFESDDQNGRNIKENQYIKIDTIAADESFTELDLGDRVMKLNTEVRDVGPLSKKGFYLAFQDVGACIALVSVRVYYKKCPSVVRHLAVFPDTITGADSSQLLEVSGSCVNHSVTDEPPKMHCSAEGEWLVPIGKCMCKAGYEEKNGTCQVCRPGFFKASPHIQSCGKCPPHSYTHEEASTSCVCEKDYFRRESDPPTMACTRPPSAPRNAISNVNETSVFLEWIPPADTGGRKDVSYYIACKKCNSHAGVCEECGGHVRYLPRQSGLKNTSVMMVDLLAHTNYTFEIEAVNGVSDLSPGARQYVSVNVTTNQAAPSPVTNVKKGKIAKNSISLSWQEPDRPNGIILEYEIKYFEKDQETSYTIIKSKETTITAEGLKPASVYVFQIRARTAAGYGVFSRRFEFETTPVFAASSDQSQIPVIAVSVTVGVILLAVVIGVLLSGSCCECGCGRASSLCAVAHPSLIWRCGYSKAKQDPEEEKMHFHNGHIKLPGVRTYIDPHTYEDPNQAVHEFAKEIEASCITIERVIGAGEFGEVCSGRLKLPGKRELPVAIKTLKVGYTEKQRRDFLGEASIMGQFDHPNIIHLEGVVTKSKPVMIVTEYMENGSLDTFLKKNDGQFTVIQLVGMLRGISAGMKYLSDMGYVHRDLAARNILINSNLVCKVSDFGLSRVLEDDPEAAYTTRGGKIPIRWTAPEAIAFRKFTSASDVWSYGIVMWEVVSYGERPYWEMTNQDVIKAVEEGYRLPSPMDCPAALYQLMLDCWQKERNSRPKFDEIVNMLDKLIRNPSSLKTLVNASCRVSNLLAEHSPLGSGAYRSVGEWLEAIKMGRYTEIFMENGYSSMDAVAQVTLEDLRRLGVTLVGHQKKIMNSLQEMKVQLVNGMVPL
Excerpt: as §1

panel of 442 kinases [3] = target: T3, panel of 442 kinases (Homo sapiens, UniProt P10721, V559D)
T3 construct: purchased KINOMEscan
T3 sequence (P10721 26-976 V559D): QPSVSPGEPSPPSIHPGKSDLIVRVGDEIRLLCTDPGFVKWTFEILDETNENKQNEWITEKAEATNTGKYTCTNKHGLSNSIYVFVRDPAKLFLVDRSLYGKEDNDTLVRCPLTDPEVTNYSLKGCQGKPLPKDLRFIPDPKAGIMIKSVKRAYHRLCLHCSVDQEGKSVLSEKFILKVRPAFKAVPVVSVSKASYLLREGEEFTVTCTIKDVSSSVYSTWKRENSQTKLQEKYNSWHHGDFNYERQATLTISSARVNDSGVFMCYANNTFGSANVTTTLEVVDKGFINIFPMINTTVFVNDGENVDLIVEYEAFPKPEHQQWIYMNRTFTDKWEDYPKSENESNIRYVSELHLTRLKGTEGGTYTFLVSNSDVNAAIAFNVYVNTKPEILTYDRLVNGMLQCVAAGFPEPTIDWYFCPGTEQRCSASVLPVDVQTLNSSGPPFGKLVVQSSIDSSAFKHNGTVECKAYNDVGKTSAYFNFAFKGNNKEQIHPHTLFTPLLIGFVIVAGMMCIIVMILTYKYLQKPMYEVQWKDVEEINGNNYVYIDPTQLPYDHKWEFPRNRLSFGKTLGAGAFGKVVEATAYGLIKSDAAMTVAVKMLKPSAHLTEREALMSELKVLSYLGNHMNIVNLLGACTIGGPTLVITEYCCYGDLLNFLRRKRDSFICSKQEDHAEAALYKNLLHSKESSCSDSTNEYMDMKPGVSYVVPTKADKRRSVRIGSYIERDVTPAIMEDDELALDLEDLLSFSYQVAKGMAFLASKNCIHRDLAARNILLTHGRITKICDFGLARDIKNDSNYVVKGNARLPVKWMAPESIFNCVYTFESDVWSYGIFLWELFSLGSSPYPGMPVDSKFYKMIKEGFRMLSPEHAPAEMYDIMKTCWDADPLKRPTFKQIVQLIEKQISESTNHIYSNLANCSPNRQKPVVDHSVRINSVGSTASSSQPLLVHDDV
Excerpt: as §1

panel of 442 kinases [4] = target: T4, panel of 442 kinases (Homo sapiens, UniProt Q9BUB5)
T4 construct: purchased KINOMEscan
T4 sequence (Q9BUB5 whole entry): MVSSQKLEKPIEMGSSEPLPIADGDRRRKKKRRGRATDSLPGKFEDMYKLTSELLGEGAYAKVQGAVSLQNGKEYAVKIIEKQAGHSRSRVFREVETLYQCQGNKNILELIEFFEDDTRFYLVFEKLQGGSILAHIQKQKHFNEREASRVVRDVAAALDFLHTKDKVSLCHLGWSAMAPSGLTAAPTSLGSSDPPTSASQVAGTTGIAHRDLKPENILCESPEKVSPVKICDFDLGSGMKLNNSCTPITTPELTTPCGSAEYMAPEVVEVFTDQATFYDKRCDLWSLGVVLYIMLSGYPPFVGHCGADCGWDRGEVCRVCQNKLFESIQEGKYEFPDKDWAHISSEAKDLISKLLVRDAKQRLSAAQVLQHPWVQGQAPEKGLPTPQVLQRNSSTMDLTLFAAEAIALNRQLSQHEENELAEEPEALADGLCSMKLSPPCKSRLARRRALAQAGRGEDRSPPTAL
Excerpt: as §1

T1 sequence (P08922 28-2347): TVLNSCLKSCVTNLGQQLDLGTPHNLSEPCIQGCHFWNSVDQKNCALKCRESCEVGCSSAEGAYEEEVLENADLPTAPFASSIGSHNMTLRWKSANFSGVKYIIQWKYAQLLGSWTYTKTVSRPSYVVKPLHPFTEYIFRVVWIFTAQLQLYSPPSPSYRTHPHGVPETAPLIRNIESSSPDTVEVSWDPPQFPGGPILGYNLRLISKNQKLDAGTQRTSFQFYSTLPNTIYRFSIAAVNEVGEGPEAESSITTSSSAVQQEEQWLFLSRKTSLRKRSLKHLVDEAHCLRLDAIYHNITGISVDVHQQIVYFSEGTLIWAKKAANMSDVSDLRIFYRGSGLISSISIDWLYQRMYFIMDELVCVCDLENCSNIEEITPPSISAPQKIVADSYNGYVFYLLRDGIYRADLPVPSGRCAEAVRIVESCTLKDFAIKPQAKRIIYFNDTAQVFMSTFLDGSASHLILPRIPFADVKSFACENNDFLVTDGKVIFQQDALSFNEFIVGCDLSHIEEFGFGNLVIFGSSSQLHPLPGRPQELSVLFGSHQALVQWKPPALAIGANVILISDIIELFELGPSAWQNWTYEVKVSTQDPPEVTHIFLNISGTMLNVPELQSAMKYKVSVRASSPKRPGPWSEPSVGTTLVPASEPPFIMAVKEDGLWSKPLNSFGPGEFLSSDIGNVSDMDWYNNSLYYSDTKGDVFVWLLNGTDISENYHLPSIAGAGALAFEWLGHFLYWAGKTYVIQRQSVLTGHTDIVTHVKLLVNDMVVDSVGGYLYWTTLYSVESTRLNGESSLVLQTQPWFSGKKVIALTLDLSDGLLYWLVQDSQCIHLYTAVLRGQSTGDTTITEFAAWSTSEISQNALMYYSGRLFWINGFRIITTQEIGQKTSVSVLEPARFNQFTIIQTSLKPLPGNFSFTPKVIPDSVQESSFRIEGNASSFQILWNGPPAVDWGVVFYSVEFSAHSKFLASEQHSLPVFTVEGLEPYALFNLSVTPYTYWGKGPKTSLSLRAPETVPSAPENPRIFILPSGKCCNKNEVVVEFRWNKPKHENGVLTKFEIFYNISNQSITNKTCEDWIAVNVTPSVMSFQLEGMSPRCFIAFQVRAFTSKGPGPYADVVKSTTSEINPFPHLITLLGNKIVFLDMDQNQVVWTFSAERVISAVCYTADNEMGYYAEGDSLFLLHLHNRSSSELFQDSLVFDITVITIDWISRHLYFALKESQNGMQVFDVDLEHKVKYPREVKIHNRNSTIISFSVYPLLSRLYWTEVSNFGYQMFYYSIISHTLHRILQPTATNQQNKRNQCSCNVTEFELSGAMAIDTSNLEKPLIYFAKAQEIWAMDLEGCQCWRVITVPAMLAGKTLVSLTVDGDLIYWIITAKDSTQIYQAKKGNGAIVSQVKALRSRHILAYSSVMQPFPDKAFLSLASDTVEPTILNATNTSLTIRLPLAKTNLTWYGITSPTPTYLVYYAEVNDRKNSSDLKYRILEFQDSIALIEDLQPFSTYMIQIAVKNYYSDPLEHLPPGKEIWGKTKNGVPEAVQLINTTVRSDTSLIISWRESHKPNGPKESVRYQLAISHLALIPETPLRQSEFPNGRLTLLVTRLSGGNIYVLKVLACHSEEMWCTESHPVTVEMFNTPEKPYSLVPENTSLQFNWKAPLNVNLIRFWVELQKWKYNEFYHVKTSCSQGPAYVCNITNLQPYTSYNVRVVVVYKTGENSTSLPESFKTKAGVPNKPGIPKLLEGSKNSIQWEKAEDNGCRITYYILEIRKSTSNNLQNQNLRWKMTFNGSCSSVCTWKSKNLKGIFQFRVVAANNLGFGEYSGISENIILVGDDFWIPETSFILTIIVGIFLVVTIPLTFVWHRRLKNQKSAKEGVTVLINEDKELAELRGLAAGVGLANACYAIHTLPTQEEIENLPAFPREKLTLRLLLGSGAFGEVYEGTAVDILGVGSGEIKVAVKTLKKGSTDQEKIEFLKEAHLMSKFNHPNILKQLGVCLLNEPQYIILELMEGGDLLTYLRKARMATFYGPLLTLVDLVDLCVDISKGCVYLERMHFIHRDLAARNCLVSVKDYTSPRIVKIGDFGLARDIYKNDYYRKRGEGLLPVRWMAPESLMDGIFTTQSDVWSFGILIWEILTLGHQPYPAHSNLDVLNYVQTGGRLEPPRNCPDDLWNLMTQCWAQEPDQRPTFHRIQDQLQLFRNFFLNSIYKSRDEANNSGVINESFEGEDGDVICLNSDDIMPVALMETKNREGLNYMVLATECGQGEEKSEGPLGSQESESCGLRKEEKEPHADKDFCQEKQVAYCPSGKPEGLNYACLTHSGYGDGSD

Structure (SMILES) | KINOMEscan: ROS1 (panel of 442 kinases [1]) | KINOMEscan: EPHA5 (panel of 442 kinases [2]) | KINOMEscan: KIT(V559D) (panel of 442 kinases [3]) | KINOMEscan: MKNK1 (panel of 442 kinases [4])
COc1cc(C(=O)N2CCC(N3CCN(C)CC3)CC2)ccc1Nc1ncc2c(n1)N(C1CCCC1)c1ccccc1C(=O)N2C [Compound 25, 11-cyclopentyl-2-((2-methoxy-4-(4-(4-methylpiperazin-1-yl)piperidine-1-carbonyl)phenyl)amino)-5-methyl-5H-benzo[e]pyrimido[5,4-b][1,4]diazepin-6(11H)-one] | 3.4 | 99 | 96 | 100
COc1cc(C(=O)N2CCC(N3CCN(C)CC3)CC2)ccc1Nc1ncc2c(n1)N1CCc3cccc(c31)C(=O)N2C [Compound 24] | 24 | 94 |  | 
COc1cc(C(=O)N2CCC(N3CCN(C)CC3)CC2)ccc1Nc1ncc2c(n1)N(C)c1ccccc1C(=O)N2C [15 (LRRK2-IN-1)] | 12 | 95 | 100 | 50
CCOc1cc(C(=O)N2CCC(N3CCN(C)CC3)CC2)ccc1Nc1ncc2c(n1)N(C1CCCC1)c1ccccc1C(=O)N2C [Compound 26] | 20 | 100 | 100 | 96
